From ChEMBL document CHEMBL4699662, “Identification and structure-activity relationship studies of small molecule inhibitors of the human cathepsin D” (Bioorg Med Chem, 2021)

Key:
[1] = target: Cathepsin D (Homo sapiens) (UniProt P07339); conditions: dose 182.0 nM, time 130.0 min
in vitro [2] = conditions: human, liver microsomes
in vitro [3] = conditions: mouse, liver microsomes

Cathepsin D (Homo sapiens), sequence (P07339 65-162 limits assumed): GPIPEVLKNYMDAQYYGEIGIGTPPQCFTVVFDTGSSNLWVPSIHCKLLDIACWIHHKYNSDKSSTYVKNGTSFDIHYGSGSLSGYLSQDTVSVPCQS
Cathepsin D (Homo sapiens), sequence (P07339 169-412 limits assumed): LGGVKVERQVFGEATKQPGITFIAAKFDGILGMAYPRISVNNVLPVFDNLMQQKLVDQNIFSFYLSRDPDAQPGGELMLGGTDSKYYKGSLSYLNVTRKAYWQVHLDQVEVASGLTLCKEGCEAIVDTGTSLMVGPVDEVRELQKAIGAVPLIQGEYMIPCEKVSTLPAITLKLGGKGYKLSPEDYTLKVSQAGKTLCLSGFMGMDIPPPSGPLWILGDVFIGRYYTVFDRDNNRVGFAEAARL

Compound	inhibition [1] [%]	microsomal CLint at 0.5 h, 1 µM (in vitro [2]) [µL/min/mg]	microsomal CLint at 0.5 h, 1 µM (in vitro [3]) [µL/min/mg]
CC(C)CC(=O)N[C@H](C(=O)N[C@H](C(=O)N[C@@H](CC(C)C)[C@@H](O)CC(=O)N[C@@H](C)C(=O)N[C@@H](CC(C)C)[C@@H](O)CC(=O)O)C(C)C)C(C)C	98.7		
COc1ccc(CC(=O)NC(=N)N[C@H](CC2CCCCC2)C(=O)Nc2cc(S(=O)(=O)NC3CCCCC3)ccc2C)cc1OC		326	232
COc1ccc(CC(=O)NC(=N)N[C@H](CC2CCCCC2)C(=O)Nc2cc(S(=O)(=O)N3CCOCC3)ccc2C)cc1OC		212	237
COc1ccc(CC(=O)NC(=N)N[C@H](CO)C(=O)Nc2cc(S(N)(=O)=O)ccc2C)cc1OC		22.5	15.5
CNS(=O)(=O)c1ccc(C)c(NC(=O)[C@H](CC2CCCCC2)NC(=N)NC(=O)Cc2ccc(OC)c(OC)c2)c1		176	180
CNS(=O)(=O)c1ccc(C)c(NC(=O)[C@@H](C)NC(=N)NC(=O)Cc2ccc(OC)c(OC)c2)c1		134	220
COc1ccc(CC(=O)NC(=N)N[C@H](Cc2cccs2)C(=O)Nc2cc(S(N)(=O)=O)ccc2C)cc1OC		264	260
CCN(CC)S(=O)(=O)c1ccc(C)c(NC(=O)[C@@H](CC2CCCCC2)NC(=N)NC(=O)Cc2ccc(OC)c(OC)c2)c1		221	227
CNS(=O)(=O)c1ccc(C)c(NC(=O)[C@H](NC(=N)NC(=O)Cc2ccc(OC)c(OC)c2)C(C)C)c1		179	104
